Measurements from patent US5208237A, “7-oxypropylsulfonamido-imidazo[4,5-b]quinolin-2-ones” (Bristol-Meyers Squibb Company, priority 1992, dated 1993).
Values after ≈ are worked out from the molar mass of the structure shown. Counter-ions that a name gives are not always drawn. Like-named read-outs stand apart in the source and are kept apart here.

Legend:
Aqueous solubility = type: physicochemical; details: water
human blood platelets = assay: In vitro inhibition of ADP-induced human platelet aggregation in platelet-rich plasma (aggregometer method of Born); details: for IC50: Homo sapiens, Platelet, read-out: IC50 vs ADP in human PRP, human PRP, 3 min preincubation at about 37° C., final ADP 5.86 mM (so in the source)
Description: The aggregometer method of Born, G. V. R., J. Physiol., (London), 162, 67-68, (1962) as modified by Mustard, J. F., et al., J. Lab. Clin. Med., 64, 548-599, (1964) was used to assess the in vitro activity of the various compounds as to the inhibition of adenosine diphosphate (ADP) and collagen-induced platelet aggregation. The human volunteer donor's arm is cleansed with 70% ethyl alcohol. A sterile 20 ml syringe and needle are used to withdraw 20 ml of blood. The blood is immediately added to a test tube containing 3.8% sodium citrate to prevent clotting (1 part citrate to 9 parts blood).
Platelet rich plasma (PRP) was separated by centrifugation for 10 minutes at 1000 rpm (140xg) from citrated (3.8%) human blood. All glassware used for preparation of PRP is silicon treated. ADP in final concentration of 0.5 μg/mL or 0.05 mL of a collagen suspension prepared according to the method described by Evans, G., et al., J. Exp. Med., 128, 877-894, (1968) was used to induce aggregation. The various compounds tested were dissolved in dimethylsulfoxide (DMSO) so that 5 μl added to the platelet rich plasma would yield the desired test concentration. Vehicle control trials were done and compared with aggregation induced in platelet rich plasma containing various concentrations of the test compounds. Dose response curves were obtained and Inhibitor Concentration (IC50) values calculated.
The test compounds were incubated at about 37° C. in PRP for about 3 minutes prior to the addition of sufficient ADP to provide a final ADP concentration of 5.86 mM.

[1] = free base (* footnote), read-out: Aqueous Solubility of Free Base
[2] = not marked as free base, read-out: Aqueous Solubility

Structure (SMILES) | solubility (Aqueous solubility; [1]) [µg/mL] | IC50 (human blood platelets) [µg/mL] | solubility (Aqueous solubility; [2]) [µg/mL] | IC50 vs ADP in human PRP (human blood platelets; human PRP, 3 min preincubation at about 37° C., final ADP 5.86 mM (so in the source), dihydrochloride) [µg/mL]
O=CN1CCN(S(=O)(=O)CCCOc2ccc3nc4[nH]c(=O)[nH]c4cc3c2)CC1 [Compound 7, 3-[[(2,3-Dihydro-2-oxo-1H-imidazo[4,5-b]quinolin-7-yl)oxy]propyl]sulfonyll-1-piperazinecarboxaldehyde] | < 1000 | 5.6 (≈ 13.4 µM) | – | –
O=c1[nH]c2cc3cc(OCCCS(=O)(=O)N4CCNCC4)ccc3nc2[nH]1 [Compound 8, 1-[[3-[(2,3-Dihydro-2-oxo-1H-imidazo[4,5-b]quinolin-7-yl)oxy]propyl]sulfonyl]piperazine] | ~1000 (≈ 2550 µM) | 7.2 (≈ 18.4 µM) | – | –
O=c1[nH]c2cc3cc(OCCCS(=O)(=O)N4CCN(Cc5ccccc5)CC4)ccc3nc2[nH]1 [Compound 9c] | ~1000 (≈ 2080 µM) | 0.059 (≈ 0.123 µM) | – | –
O=c1[nH]c2cc3cc(OCCCS(=O)(=O)N4CCNCC4)ccc3nc2[nH]1 [Compound 10a, 1-[[3-[(2,3-Dihydro-2-oxo-1H-imidazo[4-5-b]quinolin-7-yl)oxy]propyl]sulfonyl]piperazine dihydrochloride] | – | – | > 20000 | 6.4
Cl.Cl.O=c1[nH]c2cc3cc(OCCCS(=O)(=O)N4CCN(Cc5ccccc5)CC4)ccc3nc2[nH]1 [Compound 10c, 1-[[3-[(2,3-Dihydro-2-oxo-1H-imidazo[4,5-b]quinolin-7-yl)oxy]propyl]sulfonyl]-4-(phenylmethyl)piperazine dihydrochloride] | – | 0.039 | > 20000 | –
Cl.Cl.O=c1[nH]c2cc3cc(OCCCS(=O)(=O)N4CCN(Cc5ccc(F)cc5)CC4)ccc3nc2[nH]1 [Compound 10d, 1-[[3-[(2,3-Dihydro-2-oxo-1H-imidazo[4,5-b]quinolin-7-yl)oxy]propyl]sulfonyl]-4-(4-fluorophenylmethyl) piperazine dihydrochloride] | – | 0.16 | > 20000 | –
Cl.Cl.O=c1[nH]c2cc3cc(OCCCS(=O)(=O)N4CCN(Cc5ccc(Cl)cc5)CC4)ccc3nc2[nH]1 [Compound 10e, 1-[[3-[(2,3-Dihydro-2-oxo-1H-imidazo[4,5-b]quinolin-7-yl)oxy]propyl]sulfonyl]-4-(4-chlorophenylmethyl) piperazine dihydrochloride] | – | 0.32 | > 20000 | –
COc1ccc(CN2CCN(S(=O)(=O)CCCOc3ccc4nc5[nH]c(=O)[nH]c5cc4c3)CC2)cc1 [Compound 10f, 1-[[3-[(2,3-Dihydro-2-oxo-1H-imidazo[4,5-b]quinolin-7-yl)oxy]propyl]sulfonyl]-4-[(4-methoxyphenylmethyl)piperazinedihydrochloride] | – | 0.27 | > 20000 | –
Cl.Cl.O=c1[nH]c2cc3cc(OCCCS(=O)(=O)N4CCN(CC5CCCCC5)CC4)ccc3nc2[nH]1 [Compound 10g, 1-[[3-[(2,3-Dihydro-2-oxo-1H-imidazo[4,5-b]quinolin-7-yl)oxy]propyl]sulfonyl]-4-(cyclohexylmethyl) piperazine dihydrochloride] | – | 0.064 | > 20000 | –
Cl.Cl.O=c1[nH]c2cc3cc(OCCCS(=O)(=O)N4CCN(c5nc6ccccc6o5)CC4)ccc3nc2[nH]1 [Compound 10h, 1-(Benzoxazol-2-yl)-4-[[3-[(2,3-dihydro-2-oxo-1H-imidazo[4,5-b]quinolin-7-yl)oxy]propyl]sulfonyl]piperazine dihydrochloride] | – | 1.4 | > 20000 | –
Cl.O=c1[nH]c2cc3cc(OCCCS(=O)(=O)N4CCN(c5nc6ccccc6s5)CC4)ccc3nc2[nH]1 [Compound 10i, 1-(Benzothiazol-2-yl)-4-[[3-[(2,3-dihydro-2-oxo-1H-imidazo[4,5-b]quinolin-7-yl)oxy]propyl]sulfonyl]piperazine hydrochloride] | – | 2.8 | ~1000 | –
Cl.Cl.O=c1[nH]c2cc3cc(OCCCS(=O)(=O)N4CCN(CCC5CCCCC5)CC4)ccc3nc2[nH]1 [Compound 10j, 1-[[3-[(2,3-Dihydro-2-oxo-1H-imidazo[4,5-b]quinolin-7-yl)oxy]propyl]sulfonyl]-4-(2-cyclohexylethyl) piperazine dihydrochloride] | – | 1.2 | < 5000 | –
O=c1[nH]c2cc3cc(OCCCS(=O)(=O)N4CCN(CCc5ccccc5)CC4)ccc3nc2[nH]1 [Compound 10k, 3-[[(2,3-Dihydro-2-oxo-1H-imidazo[4,5-b]quinolin-7-yl)oxy]propyl]sulfonyl]-4-(2-phenylethyl)piperazine dihydrochloride] | – | 0.6 | < 10000 | –
CCC(CC)CN1CCN(S(=O)(=O)CCCOc2ccc3nc4[nH]c(=O)[nH]c4cc3c2)CC1 [Compound 10l, 1-[[3-(2,3-Dihydro-2-oxo-1H-imidazo-[4,5-b]quinolin-7-yl)oxy]propyl]sulfonyl]-4-(2-ethylbut-1-yl)piperazine dihydrochloride] | – | 0.09 | > 10000 | –
Cl.Cl.O=c1[nH]c2cc3cc(OCCCS(=O)(=O)N4CCN(Cc5cccc(C(F)(F)F)c5)CC4)ccc3nc2[nH]1 [Compound 10m, 1-[[3-[(2,3-Dihydro-2-oxo-1H-imidazo[4,5-b]quinolin-7-yl)oxy]propyl]sulfonyl]-4-[(3-trifluoromethylphenyl)methyl]piperazine dihydrochloride] | – | 0.2 | ~2000 | –
